Assay results published in patent US20070274947A1, “Antisense Oligonucleotides Directed to Ribonucleotide Reductase R1 and Uses Thereof in the Treatment of Cancer” (priority 2003, published 2007).

Key:
[1] = tested on: MDA-CDDP-S4 human in vivo-selected Cisplatin-resistant breast adenocarcinoma cells; test: Cisplatin-resistant breast adenocarcinoma MDA-CDDP-S4 growth in SCID mice; conditions: SCID mice, fat pad; SEQ ID NO:1 10 mg/kg every other day; Cisplatin 4 mg/kg, Taxol 10 mg/kg i.v. weekly for three weeks
Description: MDA-CDDP-S4 human in vivo-selected Cisplatin-resistant breast adenocarcinoma cells MDA231/CDDPs4) (4×10^6 cells in 100 μl of PBS) were injected into the fat pad (inside of right leg) of 6-7 weeks old female SCID mice. After the size of tumor reached an approximate volume of 100 mm^3, 7-9 days post tumor cell injection, SEQ ID NO:1 was administered by bolus infusion into the tail vein every other day at 10 mg/kg. Control animals received saline alone for the same period. Antitumor effect of SEQ ID NO:1 was further compared to that of Cisplatin or Taxol alone (FIG. 14A) and in combination as indicated in the FIGS. 14B, 14C and 14D. Cisplatin was administered intravenously once a week for three weeks at a dose of 4 mg/kg. Taxol was administered intravenously once a week for three weeks at a dose of 10 mg/kg. Antitumor activities were estimated by the inhibition of tumor volume, which was measured with caliper and each point represents mean tumor volume calculated from 10 animals per experimental group (FIG. 14C). At the end of the study animals were sacrificed, tumor weights taken and mean tumor weights are indicated. […] As expected, treatment with Cisplatin during the same period was ineffective against Cisplatin-resistant tumor.

[2] = tested on: MDA-MB435-To.1 human Taxol-resistant breast adenocarcinoma cells; test: Taxol-resistant breast adenocarcinoma MDA-MB435-To.1 growth in SCID mice; type: in vivo
Description: MDA-MB435-To.1 human Taxol-resistant breast adenocarcinoma cells (4×10^6 cells in 100 μl of PBS) were injected into the fat pad (inside of right leg) of 6-7 weeks old female SCD mice. After the size of tumor reached an approximate volume of 100 mm^3, 20 days post tumor cell injection, SEQ ID NO:1 was administered by bolus infusion into the tail vein every other day at 10 mg/kg 15 times. Control animals received saline alone for the same period. Antitumor effect of SEQ ID NO:1 was further compared to that of Cisplatin or Taxol alone (FIG. 15A). Cisplatin was administered intravenously once a week for four weeks at a dose of 4 mg/kg. Taxol was administered intravenously once a week for four weeks at a dose of 20 mg/kg. Antitumor activities were estimated by the inhibition of tumor volume, which was measured with caliper (FIG. 15B). Each point represents mean tumor volume calculated from 9-10 animals per experimental group. […] As expected, treatment with Taxol during the same period was ineffective against Taxol-resistant tumor.
MDA-MB435-To.1 human Taxol-resistant breast adenocarcinoma cells (4×10^6 cells in 100 μl of PBS) were injected into the fat pad (inside of right leg) of 6-7 weeks old female CB-17 SCID mice. After the size of tumor reached an approximate volume of 100 mm^3, 17 days post tumor cell injection, SEQ ID NO:1 was administered by bolus infusion into the tail vein every other day at 10 mg/kg. Control animals received saline alone for the same period. Antitumor effect of SEQ ID NO:1 was compared to that of Cisplatin alone and in combination. Cisplatin was administered intravenously once a week for four weeks at a dose of 4 mg/kg. Antitumor activities were estimated by the inhibition of tumor volume, which was measured with caliper (FIG. 15B). Each point represents mean tumor volume calculated from 10 animals per experimental group. At the end of the study the animals were sacrificed and tumors weighed (FIG. 15C).

[3] = tested on: HT-29 human colon cancer cells; test: HT-29 colon tumor growth in CD-1 nude mice; type: in vivo; conditions: SEQ ID NO:1 10 mg/kg every other day
Description: A. HT-29 human colon cancer cells (3×10^6 cells in 100 μl of PBS) were subcutaneously injected into the right flank of 6-7 weeks old female CD-1 nude mice. After the size of tumor reached an approximate volume of 50 mm^3, 4 days post tumor cell injection, SEQ ID NO:1 was administered by bolus infusion into the tail vein every other day at 10 mg/kg. Control animals received saline alone for the same period. Antitumor effect of SEQ ID NO:1 was further compared to that of mitomycin C alone or that of SEQ ID NO:1 in combination with mitomycin C. Mitomycin C was administered intravenously at days 4, 11 and 18 with a dose of 3.5 mg/kg/week, one hour after the treatments with SEQ ID NO:1. All treatments were stopped at day 22. A day after the last treatment, tumors were excised from the animals and their weights were measured (FIG. 13A). […] The delay in tumor growth achieved with SEQ.
B. HT-29 human colon cancer cells (3×10^6 cells in 100 μl of PBS) were subcutaneously injected into the right flank of 5-6 week old female CD-1 nude mice. After the size of tumor reached an approximate volume of 100 mm^3, 7 days post tumor cell injection, SEQ ID NO:1 was administered by bolus infusion into the tail vein every other day at 10 mg/kg. Control animals received saline alone for the same period. Antitumor effect of SEQ ID NO:1 was further compared to that of CPT-11 alone or that of SEQ ID NO:1 in combination with CPT-11. CPT-11 was administered intraperitoneally for 5 days in a row from day 7-12 with a dose of 20 mg/kg in 100 μl saline. All treatments were stopped at day 32. A day after the last treatment, tumors were excised from the animals and their weights were measured (FIG. 13B).

[4] = tested on: DU145 human prostatic cancer cells; test: DU145 prostate tumor growth in SCID mice; type: in vivo
Description: DU145 human prostatic cancer cells (1×10^7 cells in 100 μl of PBS) were subcutaneously injected into the right flank of 6-7 week old male SCID mice. After the size of the tumors reached an approximate volume of 50 mm^3, 13 days post tumor cell injection, SEQ ID NO:1 was administered by bolus infusion into the tail vein every other day at 10 mg/kg. Control animals received saline alone for the same period. Treatments lasted for 30 days thereafter. Antitumor activities were estimated by the inhibition of tumor volume, which was measured with a caliper on nine different occasions over 30-day period. Each point represents mean tumor volume calculated from 5 animals per experimental group.
In both experiments, DU145 human prostatic cancer cells (1×10^7 cells in 100 μl of PBS) were subcutaneously injected into the right flank of 6-7 weeks old male SCID mice. After the size of tumor reached an approximate volume of 50 mm^3, 13 (upper panel) or 11 (lower panel) days post tumor cell injection, SEQ ID NO:1 was administered by bolus infusion into the tail vein every other day at 10 mg/kg 15 times (upper panel) or 14 times (lower panel), respectively. Control animals received saline alone for the same period. Antitumor effect of SEQ ID NO:1 was further compared to that of mitoxantrone (novantrone®) alone or in combination. Mitoxantrone was administered intravenously once at the beginning of the treatments at a dose of 2 mg/kg (upper panel) or once a week for four weeks at a reduced dose of 0.8 mg/kg (lower panel). All treatments were stopped at day 42 (upper panel) or 38 (lower panel), respectively. A day after the last treatment, tumors were excised from the animals and their weights were measured.

[5] = tested on: Human taxol-resistant promyelocytic leukemia cells (HL-60); test: Taxol-resistant promyelocytic leukemia (HL-60) growth in SCID mice; type: in vivo; conditions: SEQ ID NO:1 10 mg/kg i.v. every other day, taxol 10 mg/kg i.p. once a week
Description: Human taxol-resistant promyelocytic leukemia cells (HL-60) (7×10^6 cells in 100 μl of PBS) were injected into the right flank of 6-7 weeks old female SCID mice. After the size of tumor reached an approximate volume of 100 mm^3, 10 days post tumor cell injection, SEQ ID NO:1 was administered by bolus infusion into the tail vein every other day at 10 mg/kg. Control animals received saline alone for the same period. The anti-tumor effect of SEQ ID NO:1 was further compared to that of taxol. Taxol was administered i.p. once a week at a dose of 10 mg/kg. Anti-tumor activity was estimated by the inhibition of tumor volume, which was measured with caliper (FIG. 17A). Each point represents mean tumor volume calculated from 10 animals per experimental group. In addition animals were sacrificed and tumor weights taken at the end of the study.

[6] = first experiment, start 20 days post injection, SEQ ID NO:1 10 mg/kg 15 times, Cisplatin 4 mg/kg, Taxol 20 mg/kg weekly for four weeks

## N.N.[Cl][Pt][Cl] [Cisplatin, reference compound]
[1]
  tumor weight / tumor growth: ineffective
[2]; [6]
  tumor weight / tumor growth: inhibitory effects
[2]; second experiment, CB-17 SCID mice, start 17 days post injection, SEQ ID NO:1 10 mg/kg every other day, Cisplatin 4 mg/kg weekly
  tumor weight / tumor growth: inhibitory effects

## CCc1c2c(nc3ccc(OC(=O)N4CCC(N5CCCCC5)CC4)cc13)-c1cc3c(c(=O)n1C2)COC(=O)[C@]3(O)CC [CPT-11, Irinotecan, reference compound]
[3]; FIG. 13B, CPT-11 20 mg/kg i.p. 5 days, stopped day 32
  tumor weight / tumor growth: inhibitory effects

## O=C1c2c(O)ccc(O)c2C(=O)c2c(NCCNCCO)ccc(NCCNCCO)c21 [mitoxantrone, reference compound]
[4]; lower panel FIG. 2, SEQ ID NO:1 10 mg/kg every other day 14 times, mitoxantrone 0.8 mg/kg once a week for four weeks
  tumor weight / tumor growth: delay of tumor growth
[4]; upper panel FIG. 2, SEQ ID NO:1 10 mg/kg every other day 15 times, mitoxantrone 2 mg/kg i.v. once, vs saline
  tumor weight / tumor growth: inhibitory effects

## CC(=O)O[C@H]1C(=O)[C@@]2(C)[C@H]([C@H](OC(=O)c3ccccc3)[C@]3(O)C[C@H](OC(=O)[C@H](O)[C@@H](NC(=O)c4ccccc4)c4ccccc4)C(C)=C1C3(C)C)[C@]1(OC(C)=O)CO[C@@H]1C[C@@H]2O [Taxol, Paclitaxel, reference compound]
[1]
  tumor weight / tumor growth: inhibitory effects
[2]; [6]
  tumor weight / tumor growth: ineffective
[5]
  tumor growth / tumor weight: no effect on tumor growth or weight

## CO[C@@]12[C@H](COC(N)=O)C3=C(C(=O)C(C)=C(N)C3=O)N1C[C@@H]1N[C@@H]12 [mitomycin C, reference compound]
[3]; FIG. 13A, mitomycin C 3.5 mg/kg/week i.v., stopped day 22
  tumor weight / tumor growth: inhibitory effects
